GI50 and TGI data for seven compounds are collected here from PubChem BioAssay (NCI).

Structures are written as SMILES.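 Compound exposure: 48 hours, 5 concentrations, 96-well plates. The concentration for 50% growth inhibition is given as GI50. At the TGI there is no net growth.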

Some test systems named below: SNB-75 CNS; EKVX NSCLC; HL-60(TB) leukemia; TK-10 renal; NCI/ADR-RES ovarian; UO-31 renal; BT-549 breast; NCI-H226 lung; MDA-MB-231 breast; RXF 393 renal.
Holding throughout (test): NCI-60 cell line screen, 48 h

For the compound `CC(C)[C@]12O[C@H]1[C@@H]1O[C@]13[C@]1(O[C@H]1C[C@H]1c4c(C(=O)c5ccccc5)oc(OC(=O)c5ccccc5)c4CC[C@@]13C)[C@@H]2O`, the GI50 with SNB-75 CNS is 0.0224 µM; in the assay with EKVX NSCLC it was 0.0359 µM; in the assay with HL-60(TB) leukemia, 0.023 µM; in the assay on TK-10 renal, 0.0282 µM; in the assay with NCI/ADR-RES ovarian it was 0.0418 µM; with UO-31 renal, 0.0223 µM. Further, the GI50 in the assay with BT-549 breast is 0.0188 µM; with NCI-H226 lung, 0.025 µM; with MDA-MB-231 breast, 0.0463 µM; in the assay with RXF 393 renal, 0.0196 µM. Further, the TGI in the assay on SNB-75 CNS was 0.17 µM; in the assay with EKVX NSCLC it was 1.11 µM; with HL-60(TB) leukemia, more than 100 µM; in the assay on TK-10 renal it was 27.1 µM; in the assay on NCI/ADR-RES ovarian, 3.42 µM; in the assay on UO-31 renal, 10.5 µM. Further, the TGI in the assay with BT-549 breast came out at 0.0951 µM; in the assay on NCI-H226 lung it was 0.554 µM; in the assay with MDA-MB-231 breast, 43.7 µM; in the assay on RXF 393 renal, 0.0497 µM.

Consider `COc1ccc(Cc2ccccc2C(=O)O)c2ccccc12`, for which the TGI is more than 100 µM in the assay on SNB-75 CNS; 98.9 µM in the assay with EKVX NSCLC; 46 µM in the assay on HL-60(TB) leukemia; 50.2 µM with TK-10 renal; more than 100 µM with NCI/ADR-RES ovarian; more than 100 µM with UO-31 renal. Besides, the TGI in the assay on BT-549 breast, in the assay on NCI-H226 lung, in the assay with MDA-MB-231 breast and in the assay with RXF 393 renal was more than 100 µM in each case.

Turning to `CC1=C(C(=O)Nc2ccc(F)c(Cl)c2)C(c2cccc(Cl)c2)NC(=O)N1` (configuration not stated), the GI50 was 6.2 µM with SNB-75 CNS; 24.2 µM with EKVX NSCLC; 15.8 µM in the assay with TK-10 renal; 27.5 µM in the assay with NCI/ADR-RES ovarian; 16.1 µM in the assay with UO-31 renal; 19 µM in the assay on BT-549 breast. For the same compound, the GI50 is 18.1 µM with NCI-H226 lung, 11.6 µM with MDA-MB-231 breast and 15 µM in the assay with RXF 393 renal. In addition, the TGI was found to be 25.5 µM in the assay on SNB-75 CNS; 72.6 µM in the assay on EKVX NSCLC; 0.156 µM in the assay with HL-60(TB) leukemia; 41.6 µM with TK-10 renal; 67.6 µM in the assay on NCI/ADR-RES ovarian; 38.1 µM in the assay on UO-31 renal. For the same compound, the TGI is 42 µM in the assay with BT-549 breast, 48.2 µM in the assay on NCI-H226 lung, 25.1 µM with MDA-MB-231 breast and 31.5 µM in the assay on RXF 393 renal.

Take `Cn1c2ccccc2c2c3c(c4c5ccccc5n(CCCCCC#N)c4c21)C(=O)N(O)C3=O`: the GI50 was 0.43 µM in the assay on SNB-75 CNS; 2.67 µM with EKVX NSCLC; 0.381 µM in the assay with HL-60(TB) leukemia; 3.94 µM in the assay on TK-10 renal; 0.873 µM with NCI/ADR-RES ovarian; 0.374 µM in the assay with UO-31 renal. The GI50 is 2.5 µM in the assay on BT-549 breast, 1.6 µM with NCI-H226 lung, 2.34 µM with MDA-MB-231 breast and 1.83 µM in the assay on RXF 393 renal. Further, the TGI in the assay with SNB-75 CNS was 6.2 µM; in the assay with EKVX NSCLC, more than 100 µM; in the assay on HL-60(TB) leukemia it was 1.81 µM; in the assay with TK-10 renal, 40 µM; with NCI/ADR-RES ovarian it was 24.2 µM; in the assay on UO-31 renal, 1.97 µM. The TGI with BT-549 breast is 88.7 µM; in the assay on NCI-H226 lung, 7.14 µM; in the assay with MDA-MB-231 breast, 7.92 µM; in the assay with RXF 393 renal, 7.75 µM.

As for `COC(=O)c1c(-c2ccccc2)csc1NC(=O)c1c(-c2ccccc2)noc1C`, the GI50 was 3.59 µM with SNB-75 CNS; 1.32 µM with HL-60(TB) leukemia; more than 100 µM in the assay on TK-10 renal; 1.5 µM in the assay with NCI/ADR-RES ovarian; 8.88 µM in the assay on UO-31 renal; 1.56 µM with NCI-H226 lung. The GI50 was 7.66 µM with MDA-MB-231 breast and 0.762 µM with RXF 393 renal. In addition, the TGI in the assay on SNB-75 CNS, in the assay on EKVX NSCLC, with HL-60(TB) leukemia, in the assay with TK-10 renal, with NCI/ADR-RES ovarian and in the assay on UO-31 renal was more than 100 µM each time. Also, the TGI with BT-549 breast was more than 100 µM; with NCI-H226 lung, more than 100 µM; with MDA-MB-231 breast it was more than 100 µM; with RXF 393 renal, 3.97 µM.

Regarding `COc1ccc(C(=O)Nc2cccc(C3CC(=O)c4c(cc(OC)c(OC)c4OC)O3)c2)cc1` (configuration not stated), the GI50 with SNB-75 CNS was 1.35 µM; in the assay with EKVX NSCLC it was 3.12 µM; in the assay with HL-60(TB) leukemia, 1 µM; with TK-10 renal it was 7.28 µM; with NCI/ADR-RES ovarian, 0.629 µM; with UO-31 renal it was 1.33 µM. Moreover, the GI50 in the assay with BT-549 breast is 1.01 µM; in the assay on NCI-H226 lung, 2.6 µM; in the assay with MDA-MB-231 breast, 2.06 µM; in the assay with RXF 393 renal, 1.64 µM. Also, the TGI was 8.35 µM in the assay on SNB-75 CNS; more than 100 µM in the assay on EKVX NSCLC; 3.36 µM in the assay on HL-60(TB) leukemia; more than 100 µM in the assay with TK-10 renal; 17.6 µM in the assay with NCI/ADR-RES ovarian; more than 100 µM with UO-31 renal. In addition, the TGI was 7.81 µM in the assay on BT-549 breast, 43.1 µM in the assay with NCI-H226 lung, more than 100 µM in the assay with MDA-MB-231 breast and 5.48 µM in the assay with RXF 393 renal.

As for `Cc1c2c(nn1-c1ccc(S/N=C3\SCC(=O)CN3c3ccccc3)cc1)-c1ccccc1CC2`, the GI50 in the assay with SNB-75 CNS is more than 50 µM; in the assay with EKVX NSCLC, more than 50 µM; with HL-60(TB) leukemia, more than 50 µM; with TK-10 renal, more than 50 µM; in the assay on NCI/ADR-RES ovarian, 14.5 µM; with UO-31 renal it was 28.4 µM. The GI50 with BT-549 breast was 11.1 µM; with NCI-H226 lung it was 9.75 µM; in the assay on MDA-MB-231 breast, 15.4 µM; in the assay on RXF 393 renal, 31.5 µM. Also, the TGI in the assay on SNB-75 CNS, in the assay with EKVX NSCLC, with HL-60(TB) leukemia, in the assay with TK-10 renal, in the assay with NCI/ADR-RES ovarian and in the assay with UO-31 renal was more than 50 µM in each case. For the same compound, the TGI is 34.5 µM in the assay on BT-549 breast, 27 µM in the assay with NCI-H226 lung, more than 50 µM in the assay with MDA-MB-231 breast and more than 50 µM in the assay on RXF 393 renal.
